Laboratory results as given in patent US20260374836A1, “PALMITOYLATED ANALOGUE OF PROLACTIN-RELEASING PEPTIDE FOR INTRANASAL ADMINISTRATION” (USTAV ORGANICKE CHEMIE A BIOCHEMIE AKADEMIE VED CR, V. V. I., priority 2022, published 2026).
Entries after “also recorded” stand apart in the source; their conditions may differ. Numbered stars: 1 amine (or outer) side, 2 acyl side, 3 side chain; on linkers, the order of the positions; unused ones are H or OH. Side chains are listed from the residue outwards. Ends that are not written are not given here. Peptide text beside a SMILES is read from it. * marks the point of attachment. γGlu = O=C(O)[C@H](CCC(=O)[*:2])N[*:1]; Palmitoyl = CCCCCCCCCCCCCCCC(=O)*

Legend:
[1] = background statement; cited from earlier work
[2] = test system: mouse and rat models of high-fat diet-induced obesity; details: chronic peripheral administration; cited from earlier work
obese WKY rats = experiment: change in weight after chronic (30 days) IP or IN administration to obese WKY rats on high-fat diet; type: in vivo, rat (Wistar Kyoto; details: for weight change: obese WKY rats on HFD, 30 days
Method: (§1) Male WKY rats (Charles River, Germany) were kept in the accredited animal facility of the Institute of Physiology of the CAS, v.v.i., Prague, in the facility of the Academy of Sciences in Krč at a temperature of 22±2 °C and had free access to food and tap water. The light/dark rhythm was 12/12 hours (light onset 4:00). The animals were treated according to the Act on the Protection of Animals against Cruelty (Act No. 246/1992 Coll.). Males were fed a high-fat diet D12492 (Research Diets, USA) containing 60% fat, 20% protein and 20% carbohydrate. From 8 weeks of age, they were fed this diet for 4 months. They were then divided into groups of 5 animals (IP administration of saline or palm^11-PrRP31 in saline at 5 mg/kg) or 8 animals (IN administration of saline or palm^11-PrRP31 in saline at 0.3 mg/kg). The compound was administered IP or IN once daily 1 hour before lights out for 30 days. Throughout the period, the weight of the rats was monitored 3 times a week and at the end, glycated hemoglobin was measured in blood drawn from the tail. Glycated hemoglobin (HbAlc) was determined using the Tina-quant HbAlc Gen. 3 kit (Roche, Mannheim, Germany).
(§2) Graph-Pad Prism Software (San Diego, CA, USA), one-way ANOVA followed by Dunnett's post-hoc test was used for statistical evaluation. Differences in food intake between individuals injected with saline and those injected with palm^11-PrRP31 were considered statistically significant at P<0.05.

GPR10 = details: previous studies (EP 3094643); cited from earlier work
fasted C57BL/6 mice = experiment: food intake test in fasted mice after SC or IN administration; type: in vivo, mouse (C57BL/6); details: for food intake: fasted mice
Method: Male mice of strain C57BL/6 (Charles River, Germany) were kept in the accredited animal facility of the Institute of Organic Chemistry and Biochemistry of the Academy of Sciences of the Czech Republic (CAS), Prague in the facility of the Academy of Sciences in Krč at a temperature of 22±2 °C and had free access to food and tap water. The rhythm of light/dark was 12/12 h (light onset 6:00). The animals were treated according to the Act on the Protection of Animals against Cruelty (Czech Act No. 246/1992 Coll.). Males were fed a standard Ssniff R/M-H diet (Ssniff Spezialdiäten GmbH, Soest, Germany). 16 h before the application of palm^11-PrRP31, the mice were fasted with free access to water. Application of saline and palm^11-PrRP31 after dissolution in saline was performed by SC at 5 mg/kg (volume 0.15 ml/mouse) or IN using a fine-tip pipette at 0.01 and 0.1 mg/kg (5 μl/mouse). Twenty minutes after peptide injection, mice were given pre-weighed food. The food was then weighed every 30 minutes for 7 hours. The experiment was performed at least twice for each dose of palm^11-PrRP31 and one group of mice consisted of at least 6 mice. The results are expressed as a percentage of food intake compared to the saline-injected control group.
as §2, with “saline (control)” for “saline”

blood glucose [3] = experiment: blood glucose after repeated administration to obese WKY rats on high-fat diet; type: in vivo, rat (Wistar Kyoto; details: obese WKY rats on HFD, IN 0.3 mg/kg repeated, same extent as IP 5 mg/kg
Method: as §1

blood glucose [4] = experiment: blood glucose after repeated administration to obese C57BL/6N mice on high-fat diet; type: in vivo, mouse (C57BL/6N); details: obese C57BL/6N mice on HFD, IN 0.3 mg/kg repeated
Method: Male C57BL/6 mice (Charles River, Germany) were kept in the accredited animal facility of the Institute of Organic Chemistry and Biochemistry of the CAS, Prague, in the facility of the Academy of Sciences in Krč at a temperature of 22±2 °C and had free access to food and tap water. The light/dark rhythm was 12/12 hours (light onset 4:00). The animals were treated according to the Act on the Protection of Animals against Cruelty (Act No. 246/1992 Coll.). Males were fed at-house-made high-fat diet containing 60% fat (lard), 20% protein and 20% carbohydrate. From 8 weeks of age, they were fed this diet for 4 months. […] The compound was administered SC or IN twice daily 1 hour before lights out for 14 days. Throughout the period, the weight of the mice was monitored 3 times a week.

[5] = test system: glycated hemoglobin (HbAlc); experiment: glycated hemoglobin (HbA1c) in obese WKY rats after 30 days of treatment; type: in vivo, rat (Wistar Kyoto; details: obese WKY rats on HFD
Method: as §1, §2

obese C57BL/6 mice = experiment: change in weight after chronic (14 days) SC or IN administration to obese C57BL/6 mice on high-fat diet; type: in vivo, mouse (C57BL/6); details: for body weight change: obese C57BL/6 mice on HFD
Method: Male C57BL/6 mice (Charles River, Germany) were kept in the accredited animal facility of the Institute of Organic Chemistry and Biochemistry of the CAS, Prague, in the facility of the Academy of Sciences in Krč at a temperature of 22±2 °C and had free access to food and tap water. The light/dark rhythm was 12/12 hours (light onset 4:00). The animals were treated according to the Act on the Protection of Animals against Cruelty (Act No. 246/1992 Coll.). Males were fed at-house-made high-fat diet containing 60% fat (lard), 20% protein and 20% carbohydrate. From 8 weeks of age, they were fed this diet for 4 months. They were then divided into groups of 6 animals (SC administration of saline or palm^11-PrRP31 in saline at 5 mg/kg and IN administration of saline or palm^11-PrRP31 in saline at 0.3 mg/kg). The compound was administered SC or IN twice daily 1 hour before lights out for 14 days. Throughout the period, the weight of the mice was monitored 3 times a week.
as §2

rats = details: intracerebroventricular (ICV); cited from earlier work
[6] = IN 0.3 mg/kg once daily, listed as Palm^11-PrRP31

CCCCCCCCCCC[C@@H](C[C@@H]1OC(=O)[C@H]1CCCCCC)OC(=O)[C@H](CC(C)C)NC=O [Orlistat]
side effects [1]: diarrhea

CC(C)CC(N(C)C)C1(c2ccc(Cl)cc2)CCC1 (stereo not drawn) [Sibutramine]
side effects [1]: increase the risk of heart disease

CCCCCCCCCCCCCCCC(=O)N[C@@H](CCC(=O)NCCCC[C@H](NC(=O)[C@@H](NC(=O)[C@H](CCC(=O)O)NC(=O)[C@H](CCSC)NC(=O)[C@H](CO)NC(=O)[C@H](Cc1c[nH]cn1)NC(=O)[C@H](CCCNC(=N)N)NC(=O)[C@H](Cc1c[nH]cn1)NC(=O)[C@@H](NC(=O)[C@H](CCCNC(=N)N)NC(=O)[C@@H](N)CO)[C@@H](C)O)[C@@H](C)CC)C(=O)N[C@H](C(=O)N1CCC[C@H]1C(=O)N[C@@H](CC(=O)O)C(=O)N[C@H](C(=O)N[C@@H](CC(N)=O)C(=O)N1CCC[C@H]1C(=O)N[C@@H](C)C(=O)N[C@@H](Cc1c[nH]c2ccccc12)C(=O)N[C@@H](Cc1ccc(O)cc1)C(=O)N[C@@H](C)C(=O)N[C@@H](CO)C(=O)N[C@@H](CCCNC(=N)N)C(=O)NCC(=O)N[C@H](C(=O)N[C@@H](CCCNC(=N)N)C(=O)N1CCC[C@H]1C(=O)N[C@H](C(=O)NCC(=O)N[C@@H](CCCNC(=N)N)C(=O)N[C@@H](Cc1ccccc1)C(N)=O)C(C)C)[C@@H](C)CC)[C@@H](C)CC)[C@@H](C)O)C(=O)O [palm^11-PrRP31] (H-SRTHRHSMEIK([γGlu-Palmitoyl])TPDINPAWYASRGIRPVGRF-NH2)
anti-obesity and anti-diabetic effects [2]: anti-obesity and anti-diabetic effects
significance P vs. saline, change in weight (obese WKY rats; FIG. 2, IN 0.3 mg/kg, IP 5 mg/kg, ANOVA, Dunnett's): < 0.001
IN dose lower than IP dose for the same weight reduction (obese WKY rats; IN 0.3 mg/kg vs. IP dose, rats): 16 times lower
weight change (obese WKY rats; IN 0.3 mg/kg once daily): reduced weight; also recorded: highly significant weight reduction
weight change (obese WKY rats; [6]): reduced the weight of rats after chronic administration to the same extent
weight change (obese WKY rats; IP 5 mg/kg once daily, 5 mg/kg): highly significant weight reduction
weight change (obese WKY rats; IP 5 mg/kg once daily, listed as Palm^11-PrRP31, 5 mg/kg): reduced the weight of rats after chronic administration to the same extent
potency among analogues of PrRP31 (GPR10): most potent analogue of the natural peptide PrRP31
significance P vs. saline, cumulative food intake (fasted C57BL/6 mice; FIG. 1, SC 5 mg/kg, IN 0.01 and 0.1 mg/kg, ANOVA, Dunnett's): < 0.001
IN dose relative to SC dose for the same reduction in food intake, in words (fasted C57BL/6 mice; IN 0.01 and 0.1 mg/kg vs. SC 5 mg/kg): an order of magnitude lower dose
IN dose lower than SC dose to achieve the same effect on food intake (fasted C57BL/6 mice; IN vs. SC, feeding test in mice): 1-2 orders of magnitude
food intake (fasted C57BL/6 mice; IN 0.01 mg/kg, vs. saline / SC 5 mg/kg): same reduction in food intake; also recorded: significantly reduced food intake
food intake (fasted C57BL/6 mice; IN 0.01 mg/kg, vs. saline / SC 5 mg/kg, listed as Palm^11-PrRP31): reduced food intake in fasted mice very significantly and over a long period of time, to the same extent
food intake (fasted C57BL/6 mice; IN 0.1 mg/kg, vs. saline / SC 5 mg/kg): same reduction in food intake; also recorded: significantly reduced food intake
food intake (fasted C57BL/6 mice; IN 0.1 mg/kg, vs. saline / SC 5 mg/kg, listed as Palm^11-PrRP31): reduced food intake in fasted mice very significantly and over a long period of time, to the same extent
food intake (fasted C57BL/6 mice; SC 5 mg/kg, vs. saline, 5 mg/kg): highly significant (P<0.001) reduction in food intake; also recorded: significantly reduced food intake
food intake (fasted C57BL/6 mice; SC 5 mg/kg, vs. saline, listed as Palm^11-PrRP31, 5 mg/kg): reduced food intake in fasted mice very significantly and over a long period of time
blood glucose (blood glucose [3]): decreased blood glucose
blood glucose (blood glucose [4]): decreased blood glucose
glycated hemoglobin (HbAlc) ([5]; IN 0.3 mg/kg once daily): significant decrease in blood glycated hemoglobin
glycated hemoglobin (HbAlc) [5, 6]: significantly reduced glycated hemoglobin
glycated hemoglobin (HbAlc) ([5]; IP 5 mg/kg once daily): significantly reduced glycated hemoglobin
significance P vs. saline, change in weight (obese C57BL/6 mice; FIG. 4, IN 0.3 mg/kg, SC 5 mg/kg twice daily, ANOVA, Dunnett's): < 0.001
body weight change (obese C57BL/6 mice; IN 0.3 mg/kg (twice daily, 14 days)): reduced weight; also recorded: highly significant weight reduction
body weight change (obese C57BL/6 mice; IN 0.3 mg/kg (twice daily, 14 days), listed as Palm^11-PrRP31): highly significant weight reduction
body weight change (obese C57BL/6 mice; SC 5 mg/kg twice daily, 14 days): highly significant weight reduction

PrRP31: natural prolactin-releasing peptide form containing 31 amino acids (SRTHRHSMEIRTPDINPAWYASRGIRPVGRF; ends and bridges not checked; UniProt P81277 23-53, looked up)
food intake (rats): significant short-term reduction in food intake
weight (rats): weight loss
